Measurements from patent publication US7981879B2, “HIV integrase inhibitors” (Instituto di Ricerchi di Biologia Molecolare P. Angeletti …, priority 2005, dated 2011).

Test system: HIV
Experiment: Assay for inhibition of HIV replication (spread assay): acute HIV infection of T-lymphoid cells
Type: cell-based
Conditions: Human immunodeficiency virus 1, T-lymphoid, read-out: CIC95, inhibition of HIV replication
Procedure: Assays for the inhibition of acute HIV infection of T-lymphoid cells (alternatively referred to herein as the “spread assay”) were conducted in accordance with Vacca, J. P. et al., Proc. Natl. Acad. Sci. USA 1994, 91: 4096. […] The other compounds in Table 1 were tested in the spread assay up to 1 micromolar, but specific IC95 values were not obtained; i.e., the IC95 values were greater than 1 micromolar. It is believed, however, that the IC95 values of these compounds would be less than about 50 micromolar.

SMILES	IC95
CN1Cn2c(nc(C(=O)NCc3ccc(F)cc3)c(O)c2=O)C12CCCCC2 [Compound 1, N-(4-fluorobenzyl)-3′-hydroxy-7′-methyl-4′-oxo-6′,7′-dihydro-4′H-spiro[cyclohexane-1,8′-imidazo[1,5-a]pyrimidine]-2′-carboxamide]	< 1 µM

Same assay, conditions: Human immunodeficiency virus 1; spread assay, T-lymphoid cells; read-out: CIC95, inhibition of HIV replication

SMILES	IC95
CC(=O)N1CCn2c(nc(C(=O)NCc3ccc(F)cc3)c(O)c2=O)C1COCc1ccccc1 (centres unmarked) [Compound 12, 8-acetyl-9-[(benzyloxy)methyl]-N-(4-fluorobenzyl)-3-hydroxy-4-oxo-6,7,8,9-tetrahydro-4H-pyrazino[1,2-a]pyrimidine-2-carboxamide]	1 to 10 µM
CN1CCn2c(nc(C(=O)NCc3ccc(F)cc3)c(O)c2=O)C(N(C)S(C)(=O)=O)C1 (centres unmarked) [Compound 163, N-(4-fluorobenzyl)-3-hydroxy-8-methyl-10-[methyl(methylsulfonyl)amino]-4-oxo-4,6,7,8,9,10-hexahydropyrimido[1,2-d][1,4]diazepine-2-carboxamide]	< 1 µM
CC1(C)NS(=O)(=O)Cn2c1nc(C(=O)NCc1ccc(F)cc1)c(O)c2=O [Compound 105, N-(4-fluorobenzyl)-3-hydroxy-9,9-dimethyl-4-oxo-8,9-dihydro-4H-pyrimido[2,1-d][1,2,5]thiadiazine-2-carboxamide 7,7-dioxide]	1 to 10 µM
O=C(NCc1ccc(F)cc1)c1nc2n(c(=O)c1O)CCNC2COCc1ccccc1 (centres unmarked) [Compound 9, 9-[(benzyloxy)methyl]-N-(4-fluorobenzyl)-3-hydroxy-4-oxo-6,7,8,9-tetrahydro-4H-pyrazino[1,2-a]pyrimidine-2-carboxamide]	< 1 µM
CN1CCn2c(nc(C(=O)NCc3ccc(F)cc3)c(O)c2=O)C12CCOCC2 [Compound 30, N-(4-fluorobenzyl)-3′-hydroxy-8′-methyl-4′-oxo-2,3,5,6,7′,8′-hexahydro-4′H,6′H-spiro[pyran-4,9′-pyrazino[1,2-a]pyrimidine]-2′-carboxamide]	< 1 µM
CN1Cn2c(nc(C(=O)NCc3ccc(F)cc3)c(O)c2=O)C1(C)C [Compound 5, N-(4-fluorobenzyl)-3-hydroxy-7,8,8-trimethyl-4-oxo-4,6,7,8-tetrahydroimidazo[1,5-a]pyrimidine-2-carboxamide]	< 1 µM
CC1(C)NCCCn2c1nc(C(=O)NCc1ccc(F)cc1)c(O)c2=O [Compound 175, N-(4-fluorobenzyl)-3-hydroxy-10,10-dimethyl-4-oxo-4,6,7,8,9,10-hexahydropyrimido[1,2-a][1,4]diazepine-2-carboxamide]	< 1 µM
CN(C)C(=O)CN1CCn2c(nc(C(=O)NCc3ccc(F)cc3)c(O)c2=O)C1(C)C [Compound 64, 8-[2-(dimethylamino)-2-oxoethyl]-N-(4-fluorobenzyl)-3-hydroxy-9,9-dimethyl-4-oxo-6,7,8,9-tetrahydro-4H-pyrazino[1,2-a]pyrimidine-2-carboxamide]	1 to 10 µM
CN1CCn2c(nc(C(=O)NCc3ccc(F)cc3)c(O)c2=O)C1COCc1ccccc1 (centres unmarked) [Compound 11, 9-[(benzyloxy)methyl]-N-(4-fluorobenzyl)-3-hydroxy-8-methyl-4-oxo-6,7,8,9-tetrahydro-4H-pyrazino[l,2-a]pyrimidine-2-carboxamide]	1 to 10 µM
CN1CCn2c(nc(C(=O)NCc3ccc(F)cc3)c(O)c2=O)C(N(C)Cc2ccccc2)C1 (centres unmarked) [Compound 159, 10-[benzyl(methyl)amino]-N-(4-fluorobenzyl)-3-hydroxy-8-methyl-4-oxo-4,6,7,8,9,10-hexahydropyrimido[1,2-d][1,4]diazepine-2-carboxamide]	1 to 10 µM
CC(C)CNC1CN(C)CCn2c1nc(C(=O)NCc1ccc(F)cc1)c(O)c2=O (centres unmarked) [Compound 169, N-(4-fluorobenzyl)-3-hydroxy-10-(isobutylamino)-8-methyl-4-oxo-4,6,7,8,9,10-hexahydropyrimido[1,2-d][1,4]diazepine-2-carboxamide]	1 to 10 µM
CC(=O)N(CC(C)C)C1CN(C)CCn2c1nc(C(=O)NCc1ccc(F)cc1)c(O)c2=O (centres unmarked) [Compound 161, 10-[acetyl(isobutyl)amino]-N-(4-fluorobenzyl)-3-hydroxy-8-methyl-4-oxo-4,6,7,8,9,10-hexahydropyrimido[1,2-d][1,4]diazepine-2-carboxamide]	< 1 µM
CN1CCn2c(nc(C(=O)NCc3ccc(F)cc3)c(O)c2=O)C(NC(=O)C(=O)N(C)C)C1 (centres unmarked) [Compound 160, N′-(2-{[(4-fluorobenzyl)amino]carbonyl}-3-hydroxy-8-methyl-4-oxo-4,6,7,8,9,10-hexahydropyrimido[1,2-d][1,4]diazepin-10-yl)-N,N-dimethylethanediamide]	< 1 µM
COC(=O)N(C)C1CN(C)CCn2c1nc(C(=O)NCc1ccc(F)cc1)c(O)c2=O (centres unmarked) [Compound 166, methyl (2-{[(4-fluorobenzyl)amino]carbonyl}-3-hydroxy-8-methyl-4-oxo-4,6,7,8,9,10-hexahydropyrimido[1,2-d][1,4]diazepin-10-yl)methylcarbamate]	< 1 µM
CN1CCn2c(nc(C(=O)NCc3ccc(F)cc3)c(O)c2=O)C1CS(C)(=O)=O (centres unmarked) [Compound 28, N-(4-fluorobenzyl)-3-hydroxy-8-methyl-9-[(methylsulfonyl)methyl]-4-oxo-6,7,8,9-tetrahydro-4H-pyrazino[1,2-a]pyrimidine-2-carboxamide]	1 to 10 µM
O=C(NCc1ccc(F)cc1)c1nc2n(c(=O)c1O)CCNC21CCOCC1 [Compound 29, N-(4-fluorobenzyl)-3′-hydroxy-4′-oxo-2,3,5,6,7′,8′-hexahydro-4′H,6′H-spiro[pyran-4,9′-pyrazino[1,2-a]pyrimidine]-2′-carboxamide]	< 1 µM
CSCC1NCCn2c1nc(C(=O)NCc1ccc(F)cc1)c(O)c2=O (centres unmarked) [Compound 27, N-(4-fluorobenzyl)-3-hydroxy-9-[(methylthio)methyl]-4-oxo-6,7,8,9-tetrahydro-4H-pyrazino[1,2-a]pyramidine-2-carboxamide]	< 1 µM
CN1Cn2c(nc(C(=O)NCc3ccc(F)cc3S(C)(=O)=O)c(O)c2=O)C1(C)C [Compound 2, N-[4-fluoro-2-(methylsulfonyl)benzyl]-3-hydroxy-7,8,8-trimethyl-4-oxo-4,6,7,8-tetrahydroimidazo[1,5-a]pyrimidine-2-carboxamide]	< 1 µM
CC1(C)c2nc(C(=O)NCc3ccc(F)cc3)c(O)c(=O)n2CN1Cc1cccnc1 [Compound 6, N-(4-fluorobenzyl)-3-hydroxy-8,8-dimethyl-4-oxo-7-(pyridin-3-ylmethyl)-4,6,7,8-tetrahydroimidazo[1,5-a]pyrimidine-2-carboxamide]	< 1 µM
CN1CCCn2c(nc(C(=O)NCc3ccc(F)cc3)c(O)c2=O)C1(C)C [Compound 176, N-(4-fluorobenzyl)-3-hydroxy-9,10,10-trimethyl-4-oxo-4,6,7,8,9,10-hexahydropyrimido[1,2-a][1,4]diazepine-2-carboxamide]	< 1 µM
CC1c2nc(C(=O)NCc3ccc(F)cc3)c(O)c(=O)n2CCN1C (centres unmarked) [Compound 32, N-(4-fluorobenzyl)-3-hydroxy-8,9-dimethyl-4-oxo-6,7,8,9-tetrahydro-4H-pyrazino[1,2-a]pyrimidine-2-carboxamide]	< 1 µM
CC(=O)N(C)C1CN(C)CCn2c1nc(C(=O)NCc1ccc(F)cc1)c(O)c2=O (centres unmarked) [Compound 170, 10-[acetyl(methyl)amino]-N-(4-fluorobenzyl)-3-hydroxy-8-methyl-4-oxo-4,6,7,8,9,10-hexahydropyrimido[1,2-d][1,4]diazepine-2-carboxamide]	< 1 µM
